Structures are written as SMILES.

For the first assay, the system named is 201T. Put plainly: relative viability (nuclei count vs DMSO), 5 days (fraction); higher = more cells survive. Conditions: first compound 0.8 µM. The gist of the method: (§1)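 Relative viability equals treated-well nuclei counts divided by vehicle-well nuclei counts. Counts came from 4× images of lung cancer cell lines grown in 1536-well plates for 5 days after pin-tool dosing on the day after seeding. Dosing used one drug alone or a fixed anchor-drug dose plus five library-drug doses (not always all listed) in √10 steps, and values are medians of duplicate plates.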
Molecule `CCCCCCCCCCCC1=C(O)C(=O)C=C(O)C1=O` [Embelin] + CS(=O)(=O)N1CCN(Cc2cc3nc(-c4cccc5[nH]ncc45)nc(N4CCOCC4)c3s2)CC1 [Pictilisib] (partner 1 µM) registered a relative viability of 0.685.

`CCCCCCCCCCCC1=C(O)C(=O)C=C(O)C1=O` [Embelin] + C[C@@H](Oc1cc(-c2cnn(C3CCNCC3)c2)cnc1N)c1c(Cl)ccc(F)c1Cl [Crizotinib] (partner 1 µM) displayed a relative viability of 1.07.

The same assay, now with this note: first compound 2.53 µM.
`CCCCCCCCCCCC1=C(O)C(=O)C=C(O)C1=O` [Embelin] + O=C(CCCCCCC(=O)Nc1ccccc1)NO [Vorinostat] (partner 1 µM): the relative viability amounted to 1.04.

As for `CCCCCCCCCCCC1=C(O)C(=O)C=C(O)C1=O` [Embelin] + Cc1cc(Nc2cc(N3CCN(C)CC3)nc(Sc3ccc(NC(=O)C4CC4)cc3)n2)n[nH]1 [Tozasertib] (partner 0.1 µM), the relative viability amounted to 0.94.

The molecule `CCCCCCCCCCCC1=C(O)C(=O)C=C(O)C1=O` [Embelin] + COc1cc2c(Oc3ccc(NC(=O)C4(C(=O)Nc5ccc(F)cc5)CC4)cc3F)ccnc2cc1OCCCN1CCOCC1 [Foretinib] (partner 0.25 µM) gave a relative viability of 1.18.

`CCCCCCCCCCCC1=C(O)C(=O)C=C(O)C1=O` [Embelin] + CS(=O)(=O)N1CCN(Cc2cc3nc(-c4cccc5[nH]ncc45)nc(N4CCOCC4)c3s2)CC1 [Pictilisib] (partner 1 µM): the relative viability came to 0.649.

The molecule `CCCCCCCCCCCC1=C(O)C(=O)C=C(O)C1=O` [Embelin] + C[C@@H](Oc1cc(-c2cnn(C3CCNCC3)c2)cnc1N)c1c(Cl)ccc(F)c1Cl [Crizotinib] (partner 1 µM) displayed a relative viability of 1.04.

The same assay, now with this note: first compound 8 µM.
As for `CCCCCCCCCCCC1=C(O)C(=O)C=C(O)C1=O` [Embelin] + O=C(CCCCCCC(=O)Nc1ccccc1)NO [Vorinostat] (partner 1 µM), the relative viability was 0.851.

With `CCCCCCCCCCCC1=C(O)C(=O)C=C(O)C1=O` [Embelin] + Cc1cc(Nc2cc(N3CCN(C)CC3)nc(Sc3ccc(NC(=O)C4CC4)cc3)n2)n[nH]1 [Tozasertib] (partner 0.1 µM), the relative viability was 1.06.

In the case of `CCCCCCCCCCCC1=C(O)C(=O)C=C(O)C1=O` [Embelin] + COc1cc2c(Oc3ccc(NC(=O)C4(C(=O)Nc5ccc(F)cc5)CC4)cc3F)ccnc2cc1OCCCN1CCOCC1 [Foretinib] (partner 0.25 µM), the relative viability was 0.961.

For `CCCCCCCCCCCC1=C(O)C(=O)C=C(O)C1=O` [Embelin] + CS(=O)(=O)N1CCN(Cc2cc3nc(-c4cccc5[nH]ncc45)nc(N4CCOCC4)c3s2)CC1 [Pictilisib] (partner 1 µM), the relative viability came to 0.613.

With `CCCCCCCCCCCC1=C(O)C(=O)C=C(O)C1=O` [Embelin] + C[C@@H](Oc1cc(-c2cnn(C3CCNCC3)c2)cnc1N)c1c(Cl)ccc(F)c1Cl [Crizotinib] (partner 1 µM), the relative viability stood at 1.06.

The subject of another assay is LK-2. The assay is described as above. Conditions: first compound 0.08 µM. Put shortly:
as §1
For `CCCCCCCCCCCC1=C(O)C(=O)C=C(O)C1=O` [Embelin] + O=C(CCCCCCC(=O)Nc1ccccc1)NO [Vorinostat] (partner 1 µM), the relative viability is 0.308.

`CCCCCCCCCCCC1=C(O)C(=O)C=C(O)C1=O` [Embelin] + Cc1cc(Nc2cc(N3CCN(C)CC3)nc(Sc3ccc(NC(=O)C4CC4)cc3)n2)n[nH]1 [Tozasertib] (partner 0.1 µM) had a relative viability of 0.161.

Molecule `CCCCCCCCCCCC1=C(O)C(=O)C=C(O)C1=O` [Embelin] + COc1cc2c(Oc3ccc(NC(=O)C4(C(=O)Nc5ccc(F)cc5)CC4)cc3F)ccnc2cc1OCCCN1CCOCC1 [Foretinib] (partner 0.25 µM) displayed a relative viability of 1.13.

In turn, `CCCCCCCCCCCC1=C(O)C(=O)C=C(O)C1=O` [Embelin] + CS(=O)(=O)N1CCN(Cc2cc3nc(-c4cccc5[nH]ncc45)nc(N4CCOCC4)c3s2)CC1 [Pictilisib] (partner 1 µM) came in with a relative viability of 0.567.

Turning to `CCCCCCCCCCCC1=C(O)C(=O)C=C(O)C1=O` [Embelin] + C[C@@H](Oc1cc(-c2cnn(C3CCNCC3)c2)cnc1N)c1c(Cl)ccc(F)c1Cl [Crizotinib] (partner 1 µM), the relative viability came out at 0.227.

The same assay, now with this note: first compound 0.8 µM.
`CCCCCCCCCCCC1=C(O)C(=O)C=C(O)C1=O` [Embelin] + O=C(CCCCCCC(=O)Nc1ccccc1)NO [Vorinostat] (partner 1 µM): the relative viability turned out to be 0.28.

For the molecule `CCCCCCCCCCCC1=C(O)C(=O)C=C(O)C1=O` [Embelin] + Cc1cc(Nc2cc(N3CCN(C)CC3)nc(Sc3ccc(NC(=O)C4CC4)cc3)n2)n[nH]1 [Tozasertib] (partner 0.1 µM), the relative viability turned out to be 0.172.

Consider `CCCCCCCCCCCC1=C(O)C(=O)C=C(O)C1=O` [Embelin] + COc1cc2c(Oc3ccc(NC(=O)C4(C(=O)Nc5ccc(F)cc5)CC4)cc3F)ccnc2cc1OCCCN1CCOCC1 [Foretinib] (partner 0.25 µM), for which the relative viability is 1.7.

Consider `CCCCCCCCCCCC1=C(O)C(=O)C=C(O)C1=O` [Embelin] + CS(=O)(=O)N1CCN(Cc2cc3nc(-c4cccc5[nH]ncc45)nc(N4CCOCC4)c3s2)CC1 [Pictilisib] (partner 1 µM), for which the relative viability stood at 0.578.

Molecule `CCCCCCCCCCCC1=C(O)C(=O)C=C(O)C1=O` [Embelin] + C[C@@H](Oc1cc(-c2cnn(C3CCNCC3)c2)cnc1N)c1c(Cl)ccc(F)c1Cl [Crizotinib] (partner 1 µM) displayed a relative viability of 0.316.

The assay is the same for the next values; noted with them: first compound 2.53 µM.
Consider `CCCCCCCCCCCC1=C(O)C(=O)C=C(O)C1=O` [Embelin] + O=C(CCCCCCC(=O)Nc1ccccc1)NO [Vorinostat] (partner 1 µM), for which the relative viability was 0.261.

Take `CCCCCCCCCCCC1=C(O)C(=O)C=C(O)C1=O` [Embelin] + Cc1cc(Nc2cc(N3CCN(C)CC3)nc(Sc3ccc(NC(=O)C4CC4)cc3)n2)n[nH]1 [Tozasertib] (partner 0.1 µM): the relative viability is 0.147.

Molecule `CCCCCCCCCCCC1=C(O)C(=O)C=C(O)C1=O` [Embelin] + COc1cc2c(Oc3ccc(NC(=O)C4(C(=O)Nc5ccc(F)cc5)CC4)cc3F)ccnc2cc1OCCCN1CCOCC1 [Foretinib] (partner 0.25 µM) had a relative viability of 1.47.

Take `CCCCCCCCCCCC1=C(O)C(=O)C=C(O)C1=O` [Embelin] + CS(=O)(=O)N1CCN(Cc2cc3nc(-c4cccc5[nH]ncc45)nc(N4CCOCC4)c3s2)CC1 [Pictilisib] (partner 1 µM): the relative viability was found to be 0.63.

Molecule `CCCCCCCCCCCC1=C(O)C(=O)C=C(O)C1=O` [Embelin] + C[C@@H](Oc1cc(-c2cnn(C3CCNCC3)c2)cnc1N)c1c(Cl)ccc(F)c1Cl [Crizotinib] (partner 1 µM) came in with a relative viability of 0.229.

The assay is the same for the next values; noted with them: first compound 8 µM.
`CCCCCCCCCCCC1=C(O)C(=O)C=C(O)C1=O` [Embelin] + O=C(CCCCCCC(=O)Nc1ccccc1)NO [Vorinostat] (partner 1 µM) came in with a relative viability of 0.307.

As to `CCCCCCCCCCCC1=C(O)C(=O)C=C(O)C1=O` [Embelin] + Cc1cc(Nc2cc(N3CCN(C)CC3)nc(Sc3ccc(NC(=O)C4CC4)cc3)n2)n[nH]1 [Tozasertib] (partner 0.1 µM), the relative viability was 0.177.

The molecule `CCCCCCCCCCCC1=C(O)C(=O)C=C(O)C1=O` [Embelin] + COc1cc2c(Oc3ccc(NC(=O)C4(C(=O)Nc5ccc(F)cc5)CC4)cc3F)ccnc2cc1OCCCN1CCOCC1 [Foretinib] (partner 0.25 µM) displayed a relative viability of 1.79.

The record behind these values is the supplement of paper PMC10307832.
